Measurements published in PubChem BioAssay AID330 (DTP/NCI, 2004).
Where “and” joins values, the source holds several entries; their conditions need not be identical. Equal entries are not always repeated. Inconclusive results and toxic doses are left out. Peptide text beside a SMILES is read from it.

Test system: P388 leukemia ip, CD2F1 mice, survival T/C
Test: NCI In Vivo Anticancer Drug Screen. Data for tumor model P388 Leukemia (intraperitoneal) in CD2F1 (CDF1) mice
Conditions: endpoint: median survival time, higher = longer survival
In short: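 Mice carrying the transplanted tumor received test compound or vehicle. Survival was recorded in each group, and the value is the treated-group measurement divided by that of the vehicle-treated control group.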

[1] = dose: 50.0 mg/kg/injection, schedule: Q01DX005 (ip), vehicle: saline
[2] = dose: 50.0 mg/kg/injection, schedule: Q01DX005 (ip), vehicle: saline with Tween-80
[3] = dose: 100.0 mg/kg/injection, schedule: Q01DX005 (ip), vehicle: saline with Tween-80
[4] = dose: 200.0 mg/kg/injection, schedule: Q01DX005 (ip), vehicle: saline with Tween-80
[5] = dose: 25.0 mg/kg/injection, schedule: Q01DX009 (ip), vehicle: saline
[6] = dose: 12.5 mg/kg/injection, schedule: Q01DX005 (ip), vehicle: saline
[7] = dose: 25.0 mg/kg/injection, schedule: Q01DX005 (ip), vehicle: saline
[8] = dose: 50.0 mg/kg/injection, schedule: Q01DX009 (ip), vehicle: saline with Tween-80
[9] = dose: 100.0 mg/kg/injection, schedule: Q01DX009 (ip), vehicle: saline with Tween-80
[10] = dose: 200.0 mg/kg/injection, schedule: Q01DX009 (ip), vehicle: saline with Tween-80

SMILES: NC(CCC(=O)O)C(=O)NC(CCC(=O)O)C(=O)O (stereo not drawn) (H-Glu-Glu-OH; configuration not given here)
- T/C [1]: 97 % of control
- T/C (dose: 100.0 mg/kg/injection, schedule: Q01DX005 (ip), vehicle: saline): 103 % of control
- T/C (dose: 200.0 mg/kg/injection, schedule: Q01DX005 (ip), vehicle: saline): 104 % of control

SMILES: CC(=O)c1c(O)c(C)cc2c1CCc1ccc(O)c(C)c1-2
- T/C (dose: 2.0 mg/kg/injection, schedule: Q01DX009 (ip), vehicle: Klucel (hydroxypropylcellulose) (HPC)): 116 % of control
- T/C (dose: 4.0 mg/kg/injection, schedule: Q01DX009 (ip), vehicle: Klucel (hydroxypropylcellulose) (HPC)): 100 % of control
- T/C (dose: 8.0 mg/kg/injection, schedule: Q01DX009 (ip), vehicle: Klucel (hydroxypropylcellulose) (HPC)): 107 % of control
- T/C (dose: 16.0 mg/kg/injection, schedule: Q01DX009 (ip), vehicle: Klucel (hydroxypropylcellulose) (HPC)): 108 % of control

SMILES: CCN(CC)c1ncnc2c1ncn2Cc1ccc(C(=O)OC)cc1
- T/C [2]: 100 % of control
- T/C [3]: 100 % of control
- T/C [4]: 94 % of control

SMILES: N/C(=N\Cl)C(Cl)(Cl)Cl
- T/C (dose: 16.5 mg/kg/injection, schedule: Q01DX009 (ip), vehicle: saline): 113 % of control
- T/C [5]: 106 % of control
- T/C (dose: 37.5 mg/kg/injection, schedule: Q01DX009 (ip), vehicle: saline): 111 % of control

SMILES: O=C(O)C(=O)O
- T/C [6]: 98 % of control
- T/C [7]: 97 % of control
- T/C [2]: 92 % of control

SMILES: C/C=C(/C)C(=O)OC1CC(C)=CC(OC(=O)/C(C)=C\C)[C@]2(C)C1[C@](O)(C(C)C)C[C@H]2OC(C)=O (stereo partly drawn)
- T/C (dose: 5.0 mg/kg/injection, schedule: Q01DX005 (ip), vehicle: Klucel + Tween-80): 95 % of control
- T/C (dose: 10.0 mg/kg/injection, schedule: Q01DX005 (ip), vehicle: Klucel + Tween-80): 97 % of control
- T/C (dose: 20.0 mg/kg/injection, schedule: Q01DX005 (ip), vehicle: Klucel + Tween-80): 100 % of control
- T/C (dose: 40.0 mg/kg/injection, schedule: Q01DX005 (ip), vehicle: Klucel + Tween-80): 91 % of control

SMILES: CCCCCCC(=O)/C=C/c1ccc(O)cc1
- T/C [8]: 105 % of control
- T/C [9]: 105 % of control
- T/C [10]: 105 % of control

SMILES: O=C(NCCCN1CC1)C(=O)NCCCN1CC1
- T/C (dose: 0.78 mg/kg/injection, schedule: Q01DX009 (ip), vehicle: saline): 156 % of control
- T/C (dose: 1.56 mg/kg/injection, schedule: Q01DX009 (ip), vehicle: saline): 190 % of control
- T/C (dose: 3.13 mg/kg/injection, schedule: Q01DX009 (ip), vehicle: saline): 190 % of control

SMILES: CC12CSC(C)(SC1)SC2
- T/C (dose: 25.0 mg/kg/injection, schedule: Q01DX001 (ip), vehicle: Klucel (hydroxypropylcellulose) (HPC)): 99 % of control
- T/C (dose: 50.0 mg/kg/injection, schedule: Q01DX001 (ip), vehicle: Klucel (hydroxypropylcellulose) (HPC)): 99 % of control
- T/C (dose: 100.0 mg/kg/injection, schedule: Q01DX001 (ip), vehicle: Klucel (hydroxypropylcellulose) (HPC)): 100 % of control
- T/C (dose: 200.0 mg/kg/injection, schedule: Q01DX001 (ip), vehicle: Klucel (hydroxypropylcellulose) (HPC)): 100 % of control
- T/C (dose: 400.0 mg/kg/injection, schedule: Q01DX001 (ip), vehicle: Klucel (hydroxypropylcellulose) (HPC)): 95 % of control

SMILES: CCC1=C[C@H]2CN(CCc3c([nH]c4ccccc34)[C@@](C(=O)OC)(c3cc4c(cc3OC)N(C)[C@H]3[C@@](O)(C(=O)OC)[C@H](OC(C)=O)[C@]5(CC)C=CCN6CC[C@]43[C@@H]65)C2)C1
- T/C (dose: 0.06 mg/kg/injection, schedule: Q01DX009 (ip), vehicle: water): 109 % of control
- T/C (dose: 0.13 mg/kg/injection, schedule: Q01DX009 (ip), vehicle: water): 162 % of control
- T/C (dose: 0.2 mg/kg/injection, schedule: Q01DX009 (ip), vehicle: saline): 151 % of control
- T/C (dose: 0.25 mg/kg/injection, schedule: Q01DX009 (ip), vehicle: water): 106 % of control
- T/C (dose: 0.4 mg/kg/injection, schedule: Q01DX009 (ip), vehicle: saline): 163 % of control
- T/C (dose: 0.5 mg/kg/injection, schedule: Q04DX003 (ip), vehicle: water): 151 % of control
- T/C (dose: 0.8 mg/kg/injection, schedule: Q01DX009 (ip), vehicle: saline): 178 % of control
- T/C (dose: 1.0 mg/kg/injection, schedule: Q04DX003 (ip), vehicle: water): 169 % of control
- T/C (dose: 2.0 mg/kg/injection, schedule: Q04DX003 (ip), vehicle: water): 205 % of control
- T/C (dose: 4.0 mg/kg/injection, schedule: Q04DX003 (ip), vehicle: water): 241 % of control
- T/C (dose: 8.0 mg/kg/injection, schedule: Q04DX003 (ip), vehicle: water): 87 % of control

SMILES: Cc1ccc(S(=O)(=O)N2CCC2)cc1
- T/C [9]: 90 % of control
- T/C [10]: 95 % of control
- T/C (dose: 400.0 mg/kg/injection, schedule: Q01DX009 (ip), vehicle: saline with Tween-80): 100 % of control

SMILES: COc1cc(COC(=O)c2ccc(CSc3ccc(Cl)cc3)o2)cc(OC)c1OC
- T/C [2]: 99 % of control
- T/C [3]: 99 % of control

SMILES: CN(C)c1ccc(N/C=C/C(=O)c2ccccc2O)cc1
- T/C (dose: 100.0 mg/kg/injection, schedule: Q01DX001 (ip), vehicle: other): 103 % of control
- T/C (dose: 200.0 mg/kg/injection, schedule: Q01DX001 (ip), vehicle: other): 100 % of control
- T/C (dose: 400.0 mg/kg/injection, schedule: Q01DX001 (ip), vehicle: other): 96 % of control

SMILES: CC1CCCC(NC(=O)N(CCCl)N=O)C1 (stereo not drawn)
- T/C (dose: 4.0 mg/kg/injection, schedule: Q04DX003 (ip), vehicle: saline with Tween-80): 118 % of control
- T/C (dose: 6.25 mg/kg/injection, schedule: Q01DX009 (ip), vehicle: saline with Tween-80): 175 % of control
- T/C (dose: 12.5 mg/kg/injection, schedule: Q01DX009 (ip), vehicle: saline with Tween-80): 225 % of control
- T/C (dose: 16.0 mg/kg/injection, schedule: Q04DX003 (ip), vehicle: saline with Tween-80): 177 % of control
- T/C (dose: 25.0 mg/kg/injection, schedule: Q01DX009 (ip), vehicle: saline with Tween-80): 272 % of control and 295 % of control
- T/C (dose: 25.0 mg/kg/injection, schedule: Q04DX003 (ip), vehicle: saline with Tween-80): 245 % of control
- T/C (dose: 50.0 mg/kg/injection, schedule: Q04DX003 (ip), vehicle: saline with Tween-80): 118 % of control

SMILES: O=NNc1ccc(-c2ccccc2)cn1
- T/C (dose: 6.25 mg/kg/injection, schedule: Q01DX009 (ip), vehicle: saline): 101 % of control
- T/C [5]: 181 % of control
- T/C (dose: 50.0 mg/kg/injection, schedule: Q01DX009 (ip), vehicle: saline): 108 % of control

SMILES: CN(C)c1ccc(C(O)C(N)=O)cc1 (stereo not drawn)
- T/C (dose: 6.25 mg/kg/injection, schedule: Q04DX003 (ip), vehicle: saline): 100 % of control
- T/C (dose: 12.5 mg/kg/injection, schedule: Q04DX003 (ip), vehicle: saline): 104 % of control
- T/C (dose: 25.0 mg/kg/injection, schedule: Q04DX003 (ip), vehicle: saline): 100 % of control

SMILES: COc1ccc(CCNS(=O)(=O)c2c(C)c(C)c(C)c(C)c2C)cc1OC
- T/C (dose: 50.0 mg/kg/injection, schedule: Q01DX005 (ip), vehicle: Klucel (hydroxypropylcellulose) (HPC)): 93 % of control
- T/C (dose: 100.0 mg/kg/injection, schedule: Q01DX005 (ip), vehicle: Klucel (hydroxypropylcellulose) (HPC)): 88 % of control

SMILES: CN(C)/C(=N\N=C(/c1ccc(Cl)cc1)N(C)C)c1ccc(Cl)cc1
- T/C (dose: 100.0 mg/kg/injection, schedule: Q04DX003 (ip), vehicle: saline with Tween-80): 97 % of control
- T/C (dose: 200.0 mg/kg/injection, schedule: Q04DX003 (ip), vehicle: saline with Tween-80): 105 % of control
- T/C (dose: 400.0 mg/kg/injection, schedule: Q04DX003 (ip), vehicle: saline with Tween-80): 105 % of control

SMILES: COC(=O)CCc1onc(Br)c1CCl
- T/C [8]: 110 % of control
- T/C [9]: 115 % of control
- T/C [10]: 119 % of control

SMILES: Cc1ncc(CO)c2c1OC(C)(C)OC2
- T/C [2]: 100 % of control
- T/C [3]: 107 % of control
- T/C [4]: 100 % of control

SMILES: CC1(C)N=C(N)N=C(N)N1c1cccc(CCC(=O)Nc2ccc(S(=O)(=O)F)cc2)c1
- T/C (dose: 18.8 mg/kg/injection, schedule: Q01DX009 (ip), vehicle: saline with Tween-80): 116 % of control and 118 % of control
- T/C (dose: 37.5 mg/kg/injection, schedule: Q01DX009 (ip), vehicle: saline with Tween-80): 115 % of control and 118 % of control
- T/C (dose: 150.0 mg/kg/injection, schedule: Q01DX009 (ip), vehicle: saline with Tween-80): 107 % of control

SMILES: CCC(CC)NCCNc1cc(OC)cc2cccnc12
- T/C [6]: 109 % of control
- T/C [7]: 108 % of control
- T/C [1]: 100 % of control and 103 % of control

SMILES: CCCCn1c(C)nc2cc(C(F)(F)F)cc(N)c21
- T/C [8]: 99 % of control
- T/C [9]: 101 % of control
- T/C [10]: 108 % of control
